Source: patent US20020137929A1, “1 - (3-heterocyclylphenyl) isothiourea, -isourea, -guanidine and -amidine herbicidal agents” (Intellectual Property Department, BASF Aktiengesellschaft, priority 1998, published 2002)

Key:
AMBEL (Ragweed, Common) = experiment: Postemergence herbicidal evaluation; assay type: in vivo, Ambrosia artemisifolia; conditions: for AMBEL herbicidal rating: postemergence
Procedure, shortened: (§1)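 Each compound, dispersed in an acetone/water mix (50/50) carrying 0.5% TWEEN 20, is nozzle-sprayed at 40 psi on approximately two-week-old seedlings at about 0.0156–0.500 kg/ha. Plants are assessed 4–5 weeks afterward on a 0–9 scale relative to control; duplicate tests are averaged.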

GALAP (Galium) = experiment: Postemergence herbicidal evaluation; assay type: in vivo, Galium aparine; conditions: for GALAP herbicidal rating: postemergence
Procedure, shortened: as §1

[1] = test system: TRZAWR (Wheat, Winter, cv Riband); experiment: Postemergence herbicidal evaluation; assay type: in vivo, Triticum aestivum; conditions: for TRZAWR herbicidal rating: postemergence
Procedure, shortened: as §1

[2] = test system: CHEAL (Lambsquarters, Common); experiment: Preemergence herbicidal evaluation; assay type: in vivo, Chenopodium album; conditions: rated 4-5 weeks after treatment
Procedure, shortened: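 Test compound, dissolved in aqueous acetone, was sprayed over planted soil cups at an equivalent of about 0.0156 to 0.500 kg/ha; seeds had been mixed with potting soil. Greenhouse growth followed, with visual 0-9 scoring of injury at four to five weeks.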

MOOVA (Monochoria) = experiment: Postemergence weed control under flooded paddy conditions; assay type: in vivo, Monochoria vaginalis; conditions: postemergence weeds, 3-4 weeks after treatment
Procedure, shortened: (§2)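 Herbicidal effect is judged by eye on a 0–9 scale versus control, 3–4 weeks after dosing. Dosing is into flood water kept 1.5–3 cm over the soil, at about 0.0313–0.500 kg/ha in aqueous/acetone 50/50 v/v, on 3–5 cm weeds and 1.5–2.5-leaf rice seedlings.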

[3] = test system: SAGPY (Arrowhead (Pygmaea)); experiment: as above; assay type: in vivo, Sagittaria pygmaea; conditions: postemergence weeds
Procedure, shortened: as §2

[4] = rate 0.0313 kg/ha, 3-4 weeks after treatment
[5] = rate 0.0625 kg/ha, 3-4 weeks after treatment
[6] = rate 0.1250 kg/ha, 3-4 weeks after treatment
[7] = rate 0.2500 kg/ha, 3-4 weeks after treatment

Which results are given for `CCOC(=O)CN1C(=O)CSC1=Nc1cc(-n2c(=O)cc(C(F)(F)F)n(C)c2=O)c(F)cc1Cl` [Compound 8, Ethyl 2-{{2-chloro-5-[3,6-dihydro-3-methyl-2,6-dioxo-4-(trifluoromethyl)-1(2H)pyrimidinyl]-4-fluorophenyl}imino}-4-oxo-3-thiazolidineacetate]?
AMBEL herbicidal rating (AMBEL (Ragweed, Common); rate 0.0157 kg/ha): 9.0; AMBEL herbicidal rating (AMBEL (Ragweed, Common); rate 0.0313 kg/ha): 7.8; AMBEL herbicidal rating (AMBEL (Ragweed, Common); rate 0.0625 kg/ha): 8.3; AMBEL herbicidal rating (AMBEL (Ragweed, Common); rate 0.1250 kg/ha): 8.6; GALAP herbicidal rating (GALAP (Galium); rate 0.0157 kg/ha): 3.0; GALAP herbicidal rating (GALAP (Galium); rate 0.0313 kg/ha): 4.5; GALAP herbicidal rating (GALAP (Galium); rate 0.0625 kg/ha): 6.3; GALAP herbicidal rating (GALAP (Galium); rate 0.1250 kg/ha): 6.8; TRZAWR herbicidal rating ([1]; rate 0.0157 kg/ha): 3.5; TRZAWR herbicidal rating ([1]; rate 0.0313 kg/ha): 5.1; TRZAWR herbicidal rating ([1]; rate 0.0625 kg/ha): 6.4; TRZAWR herbicidal rating ([1]; rate 0.1250 kg/ha): 6.4; CHEAL preemergence herbicidal rating ([2]; rate 0.0156 kg/ha): 9.0; CHEAL preemergence herbicidal rating ([2]; rate 0.0313 kg/ha): 9.0; CHEAL preemergence herbicidal rating ([2]; rate 0.0625 kg/ha): 9.0; CHEAL preemergence herbicidal rating ([2]; rate 0.1250 kg/ha): 9.0; CHEAL preemergence herbicidal rating ([2]; rate 0.2500 kg/ha): 9.0; CHEAL preemergence herbicidal rating ([2]; rate 0.5000 kg/ha): 9.0; Herbicidal rating MOOVA (MOOVA (Monochoria); rate 0.0313 kg/ha): 9.0; Herbicidal rating MOOVA (MOOVA (Monochoria); rate 0.0625 kg/ha): 9.0; Herbicidal rating MOOVA (MOOVA (Monochoria); rate 0.1250 kg/ha): 9.0; Herbicidal rating MOOVA (MOOVA (Monochoria); rate 0.2500 kg/ha): 9.0; Herbicidal rating SAGPY [3, 4]: 0.0; Herbicidal rating SAGPY [3, 5]: 0.0; Herbicidal rating SAGPY [3, 6]: 0.0; Herbicidal rating SAGPY [3, 7]: 0.0

`CCOC(=O)CN1C(=O)C(CC(=O)OC(C)C)SC1=Nc1cc(-n2c(=O)cc(C(F)(F)F)n(C)c2=O)c(F)cc1Cl` (stereo not shown) [Compound 55, 2-{{2-Chloro-5-[3,6-dihydro-3-methyl-2,6-dioxo-4-(trifluoromethyl)-1(2H)-pyrimidinyl]-4-fluoro-phenyl}imino}-4-oxo-3,5-thiazolidinediacetic acid, 3-ethyl isopropyl ester] was tested. Which “Postemergence herbicidal rating AMBEL” value (AMBEL (Ragweed, Common); Rate 0.0158 kg/ha) did it give?
The value was 9.0.

And the “Postemergence herbicidal rating AMBEL” value (AMBEL (Ragweed, Common); Rate 0.0313 kg/ha)?
The value was 9.0.

And the “Postemergence herbicidal rating AMBEL” value (AMBEL (Ragweed, Common); Rate 0.0625 kg/ha)?
The value was 9.0.

What about the “Postemergence herbicidal rating AMBEL” value (AMBEL (Ragweed, Common); Rate 0.1250 kg/ha) of the same compound?
The value was 9.0.

What about the “Postemergence herbicidal rating AMBEL” value (AMBEL (Ragweed, Common); Rate 0.2500 kg/ha) of the same compound?
Its value is 9.0.

What about the “Postemergence herbicidal rating GALAP” value (GALAP (Galium); Rate 0.0158 kg/ha) of the same compound?
Its value is 6.0.

And the “Postemergence herbicidal rating GALAP” value (GALAP (Galium); Rate 0.0313 kg/ha)?
The value was 3.3.

And the “Postemergence herbicidal rating GALAP” value (GALAP (Galium); Rate 0.0625 kg/ha)?
The value was 7.0.

And the “Postemergence herbicidal rating GALAP” value (GALAP (Galium); Rate 0.1250 kg/ha)?
The value was 9.0.

What about the “Postemergence herbicidal rating GALAP” value (GALAP (Galium); Rate 0.2500 kg/ha) of the same compound?
The value was 9.0.

What about the “Postemergence herbicidal rating TRZAWR” value ([1]; Rate 0.0158 kg/ha) of the same compound?
Its value is 5.5.

What about the “Postemergence herbicidal rating TRZAWR” value ([1]; Rate 0.0313 kg/ha) of the same compound?
Its value is 6.8.

And the “Postemergence herbicidal rating TRZAWR” value ([1]; Rate 0.0625 kg/ha)?
The value was 7.5.

What about the “Postemergence herbicidal rating TRZAWR” value ([1]; Rate 0.1250 kg/ha) of the same compound?
The value was 7.5.

What about the “Postemergence herbicidal rating TRZAWR” value ([1]; Rate 0.2500 kg/ha) of the same compound?
The value was 7.5.

What about the “Herbicidal rating MOOVA” value (MOOVA (Monochoria); rate 0.0313 kg/ha) of the same compound?
The value was 9.0.

And the “Herbicidal rating MOOVA” value (MOOVA (Monochoria); rate 0.0625 kg/ha)?
Its value is 9.0.

And the “Herbicidal rating MOOVA” value (MOOVA (Monochoria); rate 0.1250 kg/ha)?
Its value is 9.0.

And the “Herbicidal rating MOOVA” value (MOOVA (Monochoria); rate 0.2500 kg/ha)?
Its value is 9.0.

What about the “Herbicidal rating SAGPY” value [3, 4] of the same compound?
Its value is 0.0.

What about the “Herbicidal rating SAGPY” value [3, 5] of the same compound?
Its value is 0.0.

And the “Herbicidal rating SAGPY” value [3, 6]?
Its value is 0.0.

What about the “Herbicidal rating SAGPY” value [3, 7] of the same compound?
Its value is 0.0.

With `CCOC(=O)[C@H](Cc1ccccc1)N1C(=O)CSC1=Nc1cc(-n2c(=O)cc(C(F)(F)F)n(C)c2=O)c(F)cc1Cl` [Compound 80, Ethyl α-benzyl-2-{{2-chloro-5-[3,6-dihydro-3-methyl-2,6-dioxo-4-(trifluoromethyl)-1(2H)-pyrimidinyl]-4-fluorophenyl}imino}-4-oxo-3-thiazolidineacetate, L-] as the compound, how does the AMBEL herbicidal rating (AMBEL (Ragweed, Common); rate 0.0158 kg/ha) read?
The AMBEL herbicidal rating was 9.0.

What about the AMBEL herbicidal rating (AMBEL (Ragweed, Common); rate 0.0315 kg/ha) of the same compound?
Its AMBEL herbicidal rating is 9.0.

What about the AMBEL herbicidal rating (AMBEL (Ragweed, Common); rate 0.0630 kg/ha) of the same compound?
Its AMBEL herbicidal rating is 7.0.

What about the GALAP herbicidal rating (GALAP (Galium); rate 0.0158 kg/ha) of the same compound?
Its GALAP herbicidal rating is 2.0.

What about the GALAP herbicidal rating (GALAP (Galium); rate 0.0315 kg/ha) of the same compound?
Its GALAP herbicidal rating is 4.0.

What about the GALAP herbicidal rating (GALAP (Galium); rate 0.0630 kg/ha) of the same compound?
The GALAP herbicidal rating was 5.0.

What about the TRZAWR herbicidal rating ([1]; rate 0.0158 kg/ha) of the same compound?
The TRZAWR herbicidal rating was 3.5.

And the TRZAWR herbicidal rating ([1]; rate 0.0315 kg/ha)?
The TRZAWR herbicidal rating was 3.5.

And the TRZAWR herbicidal rating ([1]; rate 0.0630 kg/ha)?
Its TRZAWR herbicidal rating is 4.0.

And the “Preemergence herbicidal rating CHEAL” value ([2]; rate 0.0156 kg/ha)?
The value was 7.0.

And the “Preemergence herbicidal rating CHEAL” value ([2]; rate 0.0313 kg/ha)?
The value was 9.0.

And the “Preemergence herbicidal rating CHEAL” value ([2]; rate 0.0625 kg/ha)?
The value was 9.0.

And the “Preemergence herbicidal rating CHEAL” value ([2]; rate 0.1250 kg/ha)?
The value was 9.0.

What about the “Preemergence herbicidal rating CHEAL” value ([2]; rate 0.2500 kg/ha) of the same compound?
Its value is 9.0.

And the “Herbicidal rating SAGPY” value ([3]; Rate 0.0313 kg/ha, rated 3 to 4 weeks after treatment)?
Its value is 0.0.

And the “Herbicidal rating SAGPY” value ([3]; Rate 0.0625 kg/ha, rated 3 to 4 weeks after treatment)?
The value was 0.0.

What about the “Herbicidal rating SAGPY” value ([3]; Rate 0.1250 kg/ha, rated 3 to 4 weeks after treatment) of the same compound?
The value was 0.0.

And the “Herbicidal rating SAGPY” value ([3]; Rate 0.2500 kg/ha, rated 3 to 4 weeks after treatment)?
Its value is 0.0.
